Assay results: patent US20130040390A1, “CULTURE MEDIUM SUPPLEMENT AND USE THEREOF” (GUANGZHOU INSTITUTES OF BIOMEDICINE AND HEALTH, CHINESE …, priority 2010, published 2013)

Tests used:
Format in all cases: cell-based, mouse
[1] = tested on: Oct4-GFP MEFs; assay: Growth curves of SKO-infected embryonic fibroblasts in iCD1 lacking single ingredients; details: ingredient left out of iCD1, cells counted at D0, day 3, day 6
From the text: In order to determine whether the effects of the above six substances on reprogramming are cell growth dependent or independent, growth curves of the embryonic fibroblasts infected with reprogramming factor SKO and then cultured respectively in 9 culture states including iCD1, iCD1 without vitamin C, iCD1 without bFGF, iCD1 without CHIR99021, iCD1 without lithium chloride, iCD1 without vitamin B12, iCD1 without thiamine, iCD1 without all of the six ingredients, and mES were plotted. 2×10^4 initial Oct4-GFP MEFs were infected with SKO viruses, and then cultured respectively in the above 9 culture media. The cells were digested respectively at the day of infection and medium replacement (day D0) and days 3 and 6 after infection, and the cells per well were counted. The replications n in each group of test are 3, and the error bar represents standard deviation (SD).

[2] = tested on: Oct4-GFP MEFs; assay: iPS efficiency test: MEFs infected with SKO viruses, reprogrammed clones counted / GFP cell ratio by FCM; details: for recommended working concentration: from dose-response in Basal3.0, day 10; for effect on the reprogramming efficiency: ingredient left out of iCD1, clones at day 8 after SKO infection; for effect on the iCD1 reprogramming efficiency: added to iCD1: A83-01 0.5 μM, valproic acid 1 mM, 2% fetal bovine serum
From the text: Somatic cell type used in reprogramming is OG2 MEFs of no more than 3 passages. OG2 mice are transgenic mice with green fluorescent protein (GFP) gene linked after the promoter of Oct4 gene specifically expressed by stem cell. At a later stage of the reprogramming, endogenous Oct4 of OG2 MEF is activated, and the green fluorescent protein is concomitantly expressed, so the cells or reprogrammed clones appear green when observed under a fluorescence microscope. The reprogramming efficiencies under different conditions can be compared by a research by directly counting the reprogrammed clones, that is, the green fluorescent clones under a fluorescence microscope, or by analyzing the ratio of the green fluorescent cells through flow cytometry (FCM).
Cell assay and preparation of viruses are as follows. […] 6-18 hrs after the cell seeding, the cells are infected with the viruses carrying a mouse reprogramming factor according to the cell density and state. The infection is carried out in two rounds, 24 hrs after the first round of infection, the second round of infection is carried out, and the virus fluid is replaced by various test media 24 hrs after the second round of infection. The day of replacing the virus fluid is recorded as day 0 (D0), and the GFP fluorescent clones are counted in the original wells or the ratio of the GFP fluorescent cells are analyzed by flow cytometry (FCM) at different times after infection as desired.
The preparation of virus includes transfecting virus packaging cells (PlatE) with reprogramming factor plasmid cloned onto a PMX vector, refreshing the culture media 12-16 hrs after infection, using the culture collected 48 hrs after the transfection as a virus fluid for the first infection, and using the additional culture collected 24 hrs after adding fresh culture as a virus fluid for the second infection. […]

[3] = tested on: Oct4-GFP MEFs; assay: as above; details: 1×10^4 MEFs, clones at day 10

Compound: O=C1O[C@H]([C@@H](O)CO)C(O)=C1O [vitamin C, ascorbic acid]
- effect on cell growth [1]: no obvious effect on cell growth
- recommended working concentration [2]: 50 µg/mL
- concentration above which an increase has no obvious improvement effect on the reprogramming efficiency ([2]; in iCD1, 0-100 μg/ml, 2×10^4 MEFs, clones at day 10): higher than 25 μg/ml
- effect on the reprogramming efficiency [2]: especially remarkable

Compound: Cc1ncc(C[n+]2csc(CCO)c2C)c(N)n1 [thiamine]
- recommended working concentration ([2]; anti-oxidants): 9000 µg/mL
- effect on the reprogramming efficiency [2]: have effects on the reprogramming efficiency

Compound: N[C@@H](CCC(=O)N[C@@H](CS)C(=O)NCC(=O)O)C(=O)O [reduced glutathione]
- recommended working concentration ([2]; anti-oxidants): 1500 µg/mL

Compound: vitamin B12
- recommended working concentration [2]: 1.4 µg/mL
- effect on the reprogramming efficiency [2]: have effects on the reprogramming efficiency

Compound: [Cl-].[Li+] [lithium chloride, Lithium chloride]
- recommended working concentration [2]: 5 mmol/mL
- effect on the reprogramming efficiency [2]: have effects on the reprogramming efficiency

Compound: EGF: epidermal growth factor
- effect on reprogramming (receptor tyrosine kinase family growth factor) ([2]; added to iCD1 without receptor tyrosine kinase, clones at day 10): can also promote the reprogramming

Compound: NCCO [ethanolamine]
- recommended working concentration [2]: 1 µg/mL

Compound: insulin: recombinant human insulin (SIGMA Inc.) preferred
- recommended working concentration [2]: 50 µg/mL

Compound: bFGF: basic fibroblast growth factor
- final concentration above which an increase has no obvious improvement effect on the reprogramming efficiency ([3]; in iCD1, 0-10 ng/ml): higher than 5 ng/ml
- effect on cell growth [1]: different degrees of effects on cell growth
- period of the reprogramming in which it mainly plays a role ([2]; added to iCD1 at different times from days 0 to 10, clones at day 10, n=6): 0 to 8 days
- recommended working concentration [2]: 0.005 µg/mL
- effect on the reprogramming efficiency [2]: especially remarkable

Compound: O=C(O)CCCC[C@@H]1CCSS1 (racemic) [lipoic acid]
- recommended working concentration [2]: 0.2 µg/mL

Compound: vitamin E
- recommended working concentration ([2]; anti-oxidants): 1000 µg/mL

Compound: CCCC(CCC)C(=O)O [valproic acid (VPA), valproic acid, reference compound]
- effect on the iCD1 reprogramming efficiency ([2]; clones at day 10): cannot further improve the iCD1 reprogramming efficiency

Compound: Cc1c[nH]c(-c2cnc(NCCNc3ccc(C#N)cn3)nc2-c2ccc(Cl)cc2Cl)n1 [CHIR99021, reference compound]
- optimum effect concentration ([3]; in iCD1, 0-12 μmol/ml): about 3 mM
- effect on cell growth [1]: different degrees of effects on cell growth
- effect on reprogramming efficiency of Basal3.0 ([2]; added to Basal3.0, clone number and cell ratio as indexes): can significantly improve the reprogramming efficiency
- effect of high dose on the reprogramming efficiency ([2]; in iCD1, 0-12 μmol/ml, clones at day 10): inhibition effect on the reprogramming efficiency
- effect on the reprogramming efficiency [2]: especially remarkable

Compound: vitamin A
- recommended working concentration [2]: 0.1 µg/mL

Compound: CCCCC/C=C\C/C=C\CCCCCCCC(=O)O [linoleic acid]
- recommended working concentration [2]: 1 µg/mL

Compound: Cc1cccc(-c2nn(C(=S)Nc3ccccc3)cc2-c2ccnc3ccccc23)n1 [A83-01, reference compound]
- effect on the iCD1 reprogramming efficiency ([2]; clones at day 10): cannot further improve the iCD1 reprogramming efficiency
